From ChEMBL document CHEMBL3046021, “Docking and QSAR studies of new 1,4-dihydropyridines containing 4(5)-chloro-2-methyl-5(4)-imidazolyl substituent” (Med Chem Res, 2012) come the findings set out here.

Sequence of Voltage-dependent L-type calcium channel subunit alpha-1C (O35505 whole entry): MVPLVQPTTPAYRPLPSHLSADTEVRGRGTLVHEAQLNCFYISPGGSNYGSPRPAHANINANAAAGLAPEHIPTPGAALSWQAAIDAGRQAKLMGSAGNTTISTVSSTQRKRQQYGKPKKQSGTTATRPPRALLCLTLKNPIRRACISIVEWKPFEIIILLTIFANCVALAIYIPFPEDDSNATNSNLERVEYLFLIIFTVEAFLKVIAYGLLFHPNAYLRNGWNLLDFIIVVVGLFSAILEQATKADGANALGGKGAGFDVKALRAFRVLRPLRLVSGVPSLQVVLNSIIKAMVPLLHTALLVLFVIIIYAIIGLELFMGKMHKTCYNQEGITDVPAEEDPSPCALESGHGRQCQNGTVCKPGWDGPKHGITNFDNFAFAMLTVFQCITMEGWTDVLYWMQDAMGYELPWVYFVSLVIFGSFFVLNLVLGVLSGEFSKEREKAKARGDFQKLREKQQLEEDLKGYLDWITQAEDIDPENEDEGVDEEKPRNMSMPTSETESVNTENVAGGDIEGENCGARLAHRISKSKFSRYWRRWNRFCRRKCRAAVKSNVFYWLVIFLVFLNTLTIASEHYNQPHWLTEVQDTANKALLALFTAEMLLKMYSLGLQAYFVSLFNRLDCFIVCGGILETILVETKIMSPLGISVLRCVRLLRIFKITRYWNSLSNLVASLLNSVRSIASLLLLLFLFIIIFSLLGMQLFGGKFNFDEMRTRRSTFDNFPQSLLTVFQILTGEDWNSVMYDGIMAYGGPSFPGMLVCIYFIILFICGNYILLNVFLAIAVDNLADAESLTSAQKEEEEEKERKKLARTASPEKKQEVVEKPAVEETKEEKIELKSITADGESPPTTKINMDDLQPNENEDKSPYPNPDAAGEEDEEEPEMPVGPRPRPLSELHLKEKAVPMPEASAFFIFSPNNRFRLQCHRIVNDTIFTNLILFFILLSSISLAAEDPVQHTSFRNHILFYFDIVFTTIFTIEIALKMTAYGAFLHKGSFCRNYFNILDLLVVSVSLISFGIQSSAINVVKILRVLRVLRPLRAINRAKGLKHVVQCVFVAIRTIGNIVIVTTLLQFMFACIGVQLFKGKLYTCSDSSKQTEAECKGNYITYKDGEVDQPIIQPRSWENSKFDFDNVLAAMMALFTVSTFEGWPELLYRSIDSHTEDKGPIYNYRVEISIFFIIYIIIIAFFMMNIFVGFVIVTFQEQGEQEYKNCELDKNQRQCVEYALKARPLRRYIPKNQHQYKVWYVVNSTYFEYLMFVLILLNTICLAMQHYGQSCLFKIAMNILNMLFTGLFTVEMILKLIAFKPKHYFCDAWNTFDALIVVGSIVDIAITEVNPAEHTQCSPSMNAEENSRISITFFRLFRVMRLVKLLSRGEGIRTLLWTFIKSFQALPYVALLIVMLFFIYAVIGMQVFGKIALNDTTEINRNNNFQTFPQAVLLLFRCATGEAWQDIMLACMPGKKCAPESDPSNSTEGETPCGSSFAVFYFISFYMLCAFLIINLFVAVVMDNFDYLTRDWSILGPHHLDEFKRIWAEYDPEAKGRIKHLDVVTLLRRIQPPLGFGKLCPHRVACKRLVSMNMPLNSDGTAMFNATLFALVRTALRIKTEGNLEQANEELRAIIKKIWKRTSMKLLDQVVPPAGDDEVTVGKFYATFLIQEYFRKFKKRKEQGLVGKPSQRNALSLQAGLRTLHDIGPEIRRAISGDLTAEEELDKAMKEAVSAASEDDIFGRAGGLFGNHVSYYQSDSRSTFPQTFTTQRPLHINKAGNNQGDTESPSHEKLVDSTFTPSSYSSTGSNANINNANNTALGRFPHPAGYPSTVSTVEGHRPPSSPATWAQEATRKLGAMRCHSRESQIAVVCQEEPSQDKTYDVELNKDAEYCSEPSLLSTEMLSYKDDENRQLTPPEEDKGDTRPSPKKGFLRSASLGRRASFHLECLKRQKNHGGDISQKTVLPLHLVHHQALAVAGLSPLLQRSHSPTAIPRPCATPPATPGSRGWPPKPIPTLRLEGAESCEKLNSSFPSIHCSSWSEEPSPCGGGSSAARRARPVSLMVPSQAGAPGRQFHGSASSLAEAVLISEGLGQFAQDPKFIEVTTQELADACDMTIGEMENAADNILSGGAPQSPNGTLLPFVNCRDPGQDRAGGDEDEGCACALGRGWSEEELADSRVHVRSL

The experiment concerns the target Voltage-dependent L-type calcium channel subunit alpha-1C (Cavia porcellus, UniProt O35505). Briefly: Inhibition of L-type calcium channel in Cavia porcellus (guinea pig) ileal SMC assessed as inhibition of 80 mM KCl-induced current.
As to `CCOC(=O)C1=C(C)NC(C)=C(C(=O)OCC2CCCCC2)C1c1[nH]c(C)nc1Cl` (stereo not drawn), the IC50 (commonly the midpoint of a concentration-inhibition curve) is 513 nM.
To `COC(=O)C1=C(C)NC(C)=C(C(=O)OC(C)(C)C)C1c1[nH]c(C)nc1Cl` (stereo not drawn) belongs 1860 nM; to `CC1=C(C(=O)OCC(C)C)C(c2[nH]c(C)nc2Cl)C(C(=O)OCC(C)C)=C(C)N1`, 95.5 nM.
Then `CC1=C(C(=O)OC(C)(C)C)C(c2[nH]c(C)nc2Cl)C(C(=O)OC(C)(C)C)=C(C)N1`, with 4070 nM; and `CC1=C(C(=O)OC2CCCC2)C(c2[nH]c(C)nc2Cl)C(C(=O)OC2CCCC2)=C(C)N1`, with 97.7 nM; and `CCCOC(=O)C1=C(C)NC(C)=C(C(=O)OCC)C1c1[nH]c(C)nc1Cl` (stereo not drawn), with 407 nM.
As to `CCCOC(=O)C1=C(C)NC(C)=C(C(=O)OCCC)C1c1[nH]c(C)nc1Cl`, the IC50 is 63.1 nM.
Take `CCOC(=O)C1=C(C)NC(C)=C(C(=O)OCC)C1c1[nH]c(C)nc1Cl`: the IC50 was 437 nM.
To `COC(=O)C1=C(C)NC(C)=C(C(=O)OC)C1c1[nH]c(C)nc1Cl` belongs 1200 nM; to `CC1=C(C(=O)OCCCc2ccccc2)C(c2nc(C)[nH]c2Cl)C(C(=O)OCCCc2ccccc2)=C(C)N1`, 1.74 nM; to `CCCOC(=O)C1=C(C)NC(C)=C(C(=O)OC)C1c1[nH]c(C)nc1Cl` (stereo not drawn), 437 nM.
Then `CC1=C(C(=O)OCc2ccccc2)C(c2nc(C)[nH]c2Cl)C(C(=O)OCc2ccccc2)=C(C)N1`, with 41.7 nM; and `CC1=C(C(=O)OCC2CCCCC2)C(c2[nH]c(C)nc2Cl)C(C(=O)OCC2CCCCC2)=C(C)N1`, with 631 nM.
To `CCOC(=O)C1=C(C)NC(C)=C(C(=O)OC(C)(C)C)C1c1[nH]c(C)nc1Cl` (stereo not drawn) belongs 1660 nM; to `CCOC(=O)C1=C(C)NC(C)=C(C(=O)OCc2ccccc2)C1c1[nH]c(C)nc1Cl` (stereo not drawn), 91.2 nM.
As for `CCOC(=O)C1=C(C)NC(C)=C(C(=O)OCCc2ccccc2)C1c1[nH]c(C)nc1Cl` (stereo not drawn), the IC50 was 70.8 nM.
Then `CCOC(=O)C1=C(C)NC(C)=C(C(=O)OC)C1c1[nH]c(C)nc1Cl` (stereo not drawn), with 661 nM; and `COC(=O)C1=C(C)NC(C)=C(C(=O)OCc2ccccc2)C1c1[nH]c(C)nc1Cl` (stereo not drawn), with 93.3 nM; and `COC(=O)C1=C(C)NC(C)=C(C(=O)OCCc2ccccc2)C1c1[nH]c(C)nc1Cl` (stereo not drawn), with 79.4 nM.
To `CC1=C(C(=O)OCCc2ccccc2)C(c2nc(C)[nH]c2Cl)C(C(=O)OCCc2ccccc2)=C(C)N1` belongs 0.182 nM; to `CC1=C(C(=O)OC(C)C)C(c2[nH]c(C)nc2Cl)C(C(=O)OC(C)C)=C(C)N1`, 38 nM; to `CC1=C(C(=O)OC2CCCCC2)C(c2[nH]c(C)nc2Cl)C(C(=O)OC2CCCCC2)=C(C)N1`, 955 nM.
To `COC(=O)C1=C(C)NC(C)=C(C(=O)OCC2CCCCC2)C1c1[nH]c(C)nc1Cl` (stereo not drawn) belongs 355 nM.
